# Experimental data taken from patent US20240150293A1, “SPIROCYCLOHEXANE DERIVATIVES, PHARMACEUTICAL COMPOSITIONS CONTAINING THEM AND THEIR USES AS ANTI-APOPTOTIC INHIBITORS” (LES LABORATOIRES SERVIER, priority 2021, published 2024).
# Target: Mcl-1 protein (UniProtKB Q07820) (Homo sapiens (Human), UniProt Q07820)
# Experiment: Inhibition of Mcl-1 by the fluorescence polarisation assay (Example A, Method A)
# Type: binding
# Conditions: fluorescence polarization assay
# Description: The relative binding potency of each compound was determined via Fluorescence Polarisation (FP). The method utilised a Fluorescein labelled ligand (Fluorescein-βAla-Ahx-A-REIGAQLRRMADDLNAQY-OH; MW 2,765) which binds to the Mcl-1 protein (such that Mcl-1 corresponds to the UniProtKB® primary accession number: Q07820) leading to an increased anisotropy measured in milli-polarisation (mP) units using a reader. The addition of a compound which binds competitively to the same site as the ligand will result in a greater proportion of unbound ligand in the system indicated by a decrease in mP units.
# An 11 point serial dilution of each compound was prepared in DMSO and 2 μl transferred into flat bottomed, low binding, 384-well plate (final DMSO concentration 5%). 38 μl of buffer containing the Fluorescein labelled ligand (final concentration 1 nM) and Mcl-1 protein (final concentration 5 nM) was then added. Buffer components were 10 mM 4-(2-hydroxyethyl)-1-piperazineethanesulfonic acid [HEPES], 150 mM NaCl, pH 7.4 with the addition of 0.05% Tween 20.
# Assay plates were incubated for 2 hours at room temperature before FP was measured on a […] Synergy Neo reader ([…], Cut off 510 nm) and mP units calculated. The binding of increasing doses of test compound was expressed as a percentage reduction in mP compared to a window established between ‘5% DMSO only’ and ‘100% inhibition’ controls. 11-point dose response curves were plotted with XL-Fit software using a 4-Parameter Logistic Model (Sigmoidal Dose-Response Model) and the inhibitory concentrations that gave a 50% reduction in mP (IC50) were determined. The Ki values were determined from the IC50 values according to Cer et al, Nucleic Acids Res, 2009, 37 (WebServer issue): W441-W445. Inhibition constants (Ki) are determined from complete binding inhibition curves (cKi) or from estimated from incomplete binding inhibition curves (eKi) in most cases due to low activity.
# Mcl-1 protein, sequence (Q07820 whole entry): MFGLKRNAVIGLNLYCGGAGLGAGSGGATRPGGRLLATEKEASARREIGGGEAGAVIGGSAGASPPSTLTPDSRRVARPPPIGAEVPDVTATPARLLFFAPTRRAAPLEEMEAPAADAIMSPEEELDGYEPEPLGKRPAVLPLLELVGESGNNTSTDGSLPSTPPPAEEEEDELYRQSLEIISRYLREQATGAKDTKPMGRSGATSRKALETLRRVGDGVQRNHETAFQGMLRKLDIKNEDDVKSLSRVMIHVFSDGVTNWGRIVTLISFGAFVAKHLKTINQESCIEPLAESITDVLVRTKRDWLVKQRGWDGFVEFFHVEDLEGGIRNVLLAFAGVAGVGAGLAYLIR
row,Compound,Ki
1,"O=C(O)C1(Nc2cccc(Br)c2)CCC2(C=Cc3cccc(Br)c32)CC1 (single isomer, unassigned) [Example 59, 7′-bromo-4-(3-bromoanilino)spiro[cyclohexane-1,1′-indene]-4-carboxylic acid]",4210 nM
2,"Cn1cc(C2Cc3ccccc3[C@]23CC[C@](Nc2cccc(Br)c2)(C(=O)O)CC3)cn1 (stereo partly shown) [Example 213, (1s,4s)-4-(3-bromoanilino)-2′-(1-methyl-1H-pyrazol-4-yl)-2′,3′-dihydrospiro[cyclohexane-1,1′-indene]-4-carboxylic acid]",87300 nM
3,"O=C(O)[C@]1(Nc2cccc(Cl)c2)CC[C@@]2(CC1)c1ccccc1CC2CCCSc1ccccc1 (stereo partly shown) [Example 397, (1r,4r)-4-(3-chloroanilino)-2′-[3-(phenylsulfanyl)propyl]-2′,3′-dihydrospiro[cyclohexane-1,1′-indene]-4-carboxylic acid]",598 nM
4,"CC[C@H]1c2ccccc2[C@]2(CC[C@@](Nc3cccc(Cl)c3)(C(=O)O)CC2)[C@H]1C (racemic) [Example 207, (1r,2′RS,3′SR,4r)-4-(3-chloroanilino)-3′-ethyl-2′-methyl-2′,3′-dihydrospiro[cyclohexane-1,1′-indene]-4-carboxylic acid]",4660 nM
5,"Cn1ccc(OCCCC2Cc3ccccc3[C@]23CC[C@@](Nc2cccc(Cl)c2)(C(=O)O)CC3)cc1=O (stereo partly shown) [Example 479, (1r,4r)-4-(3-chloroanilino)-2′-{3-[(1-methyl-2-oxo-1,2-dihydropyridin-4-yl)oxy]propyl}-2′,3′-dihydrospiro[cyclohexane-1,1′-indene]-4-carboxylic acid]",809 nM
6,"O=C(O)[C@]1(Nc2cccc(Cl)c2)CC[C@@]2(CC1)c1ccccc1CC2[C@H]1C[C@@H]1COc1cccnc1 (single isomer, unassigned) [Example 116, (1r,4r)-4-(3-chloroanilino)-2′-[(1R*,2S*)-2-{[(pyridin-3-yl)oxy]methyl}cyclopropyl]-2′,3′-dihydrospiro[cyclohexane-1,1′-indene]-4-carboxylic acid]",882 nM
7,"O=C(O)[C@]1(Nc2cccc(Cl)c2)CC[C@@]2(C=Cc3ncccc32)CC1 [Example 70, (1r,4r)-4-(3-chloroanilino)spiro[cyclohexane-1,5′-cyclopenta[b]pyridine]-4-carboxylic acid]",25900 nM
8,"Cc1ccc(C2Cc3ccccc3C23CCC(Nc2cccc(Br)c2)(C(=O)O)CC3)o1 (stereo not shown) [Example 239, 4-(3-bromoanilino)-2′-(5-methylfuran-2-yl)-2′,3′-dihydrospiro[cyclohexane-1,1′-indene]-4-carboxylic acid]",301 nM
9,"CC1=Cc2ccccc2[C@]12CC[C@@](Nc1cccc(Br)c1)(C(=O)O)CC2 [Example 142, (1r,4r)-4-(3-bromoanilino)-2′-methylspiro[cyclohexane-1,1′-indene]-4-carboxylic acid]",261 nM
10,"O=C(O)[C@]1(Nc2cccc(Cl)c2)CC[C@@]2(CC1)c1ccccc1CC2CCCN1CCOCC1 (stereo partly shown) [Example 196, (1r,4r)-4-(3-chloroanilino)-2′-[3-(morpholin-4-yl)propyl]-2′,3′-dihydrospiro[cyclohexane-1,1′-indene]-4-carboxylic acid]",9470 nM
11,"O=C(O)[C@]1(Nc2cccc(Cl)c2)CC[C@]2(CC1)C(c1ccccc1Cl)=Cc1ccccc12 [Example 311, (1s,4s)-4-(3-chloroanilino)-2′-(2-chlorophenyl)spiro[cyclohexane-1,1′-indene]-4-carboxylic acid]",559 nM
12,"Cc1ccc(C)c2c1CC(C)C21CCC(Nc2cccc(Br)c2)(C(=O)O)CC1 (stereo not shown) [Example 123, 4-(3-bromoanilino)-2′,4′,7′-trimethyl-2′,3′-dihydrospiro[cyclohexane-1,1′-indene]-4-carboxylic acid]",6400 nM
13,"O=C(O)[C@]1(Nc2cccc(Cl)c2)CC[C@]2(CC1)C(CC(CO)COc1ccnc3ccsc13)=Cc1ccccc12 (stereo partly shown) [Example 491, (1r,4r)-4-(3-chloroanilino)-2′-{2-(hydroxymethyl)-3-[(thieno[3,2-b]pyridin-7-yl)oxy]propyl}spiro[cyclohexane-1,1′-indene]-4-carboxylic acid]",154 nM
14,"O=C(O)C1(Nc2cccc(Br)c2)CCC2(CC1)c1ccccc1CC2c1ccc(OCc2ccccc2)cc1 (stereo not shown) [Example 244, 2′-[4-(benzyloxy)phenyl]-4-(3-bromoanilino)-2′,3′-dihydrospiro[cyclohexane-1,1′-indene]-4-carboxylic acid]",779 nM
15,"O=C(O)C1(Nc2cccc(Br)c2)CCC2(C=Cc3ccccc32)CC1 (single isomer, unassigned) [Example 58, 4-(3-bromoanilino)spiro[cyclohexane-1,1′-indene]-4-carboxylic acid]",696 nM
16,"COc1cccc(C2Cc3ccccc3[C@]23CC[C@@](Nc2cccc(Cl)c2)(C(=O)O)CC3)c1Cl (single isomer, unassigned) [Example 291, (1r,4r)-4-(3-chloroanilino)-2′-(2-chloro-3-methoxyphenyl)-2′,3′-dihydrospiro[cyclohexane-1,1′-indene]-4-carboxylic acid]",2540 nM
17,"O=C(O)[C@]1(Nc2cccc(Cl)c2)CC[C@@]2(CC1)c1ccccc1CC2c1ccc(OCc2ccncc2)cc1 (single isomer, unassigned) [Example 369, (1r,4r)-4-(3-chloroanilino)-2′-{4-[(pyridin-4-yl)methoxy]phenyl}-2′,3′-dihydrospiro[cyclohexane-1,1′-indene]-4-carboxylic acid]",1910 nM
18,"O=C(O)[C@]1(Nc2cccc(Cl)c2)CC[C@]2(CC1)C(c1ccc(OCc3cccnc3)cc1)=Cc1ccccc12 [Example 350, (1s,4s)-4-(3-chloroanilino)-2′-{4-[(pyridin-3-yl)methoxy]phenyl}spiro[cyclohexane-1,1′-indene]-4-carboxylic acid]",1750 nM
19,"CC(O)c1ccc2c(c1)[C@]1(CC[C@@](Nc3cccc(Cl)c3)(C(=O)O)CC1)C(Br)=C2 (stereo partly shown) [Example 133, (1s,4s)-2′-bromo-4-(3-chloroanilino)-6′-(1-hydroxyethyl)spiro[cyclohexane-1,1′-indene]-4-carboxylic acid]",57.6 nM
20,"COc1ccc(C2Cc3ccccc3[C@]23CC[C@@](Nc2ccccc2)(C(=O)O)CC3)c(C)c1 (single isomer, unassigned) [Example 256, (1r,4r)-4-anilino-2′-(4-methoxy-2-methylphenyl)-2′,3′-dihydrospiro[cyclohexane-1,1′-indene]-4-carboxylic acid]",24200 nM
21,"COc1cc(Cl)cc(C2=Cc3ccccc3[C@]23CC[C@@](Nc2cccc(Cl)c2)(C(=O)O)CC3)c1 [Example 331, (1s,4s)-4-(3-chloroanilino)-2′-(3-chloro-5-methoxyphenyl)spiro[cyclohexane-1,1′-indene]-4-carboxylic acid]",2180 nM
22,"O=C(O)[C@]1(Nc2cccc(Cl)c2)CC[C@@]2(CC1)c1ccccc1CC2c1ccc(OCc2ccccc2)cc1 (single isomer, unassigned) [Example 352, (1r,4r)-2′-[4-(benzyloxy)phenyl]-4-(3-chloroanilino)-2′,3′-dihydrospiro[cyclohexane-1,1′-indene]-4-carboxylic acid]",802 nM
23,"O=C(O)[C@]1(Nc2cccc(Br)c2)CC[C@]2(CC1)C(CCCOc1ccnc3ccsc13)=Cc1ccccc12 [Example 454, (1r,4r)-4-(3-bromoanilino)-2′-{3-[(thieno[3,2-b]pyridin-7-yl)oxy]propyl}spiro[cyclohexane-1,1′-indene]-4-carboxylic acid]",141 nM
24,"C[C@H]1c2ccccc2[C@]2(CC[C@@](Nc3cccc(Cl)c3)(C(=O)O)CC2)[C@H]1C (single isomer, unassigned) [Example 208, (1r,2′R*,3'S*,4r)-4-(3-chloroanilino)-2′,3′-dimethyl-2′,3′-dihydrospiro[cyclohexane-1,1′-indene]-4-carboxylic acid]",31600 nM
25,"CCCC1Cc2ccccc2[C@]12CC[C@@](Nc1cccc(Br)c1)(C(=O)O)CC2 (stereo partly shown) [Example 148, (1r,4r)-4-(3-bromoanilino)-2′-propyl-2′,3′-dihydrospiro[cyclohexane-1,1′-indene]-4-carboxylic acid]",258 nM
26,"Cn1ccc2cc(C3=Cc4ccccc4[C@]34CC[C@@](Nc3cccc(Cl)c3)(C(=O)O)CC4)ccc21 [Example 264, (1s,4s)-4-(3-chloroanilino)-2′-(1-methyl-1H-indol-5-yl)spiro[cyclohexane-1,1′-indene]-4-carboxylic acid]",1750 nM
27,"O=C(O)[C@]1(Nc2cncc(Br)c2)CC[C@]2(CC1)C(Br)=Cc1ccccc12 [Example 79, (1s,4s)-2′-bromo-4-[(5-bromopyridin-3-yl)amino]spiro[cyclohexane-1,1′-indene]-4-carboxylic acid]",571 nM
28,"O=C(O)[C@]1(Nc2cccc(Cl)c2)CC[C@]2(CC1)C(c1ccc(Oc3cccnc3)cc1)=Cc1ccccc12 [Example 351, (1s,4s)-4-(3-chloroanilino)-2′-{4-[(pyridin-3-yl)oxy]phenyl}spiro[cyclohexane-1,1′-indene]-4-carboxylic acid]",544 nM
